In experiment [1] the test system is colorectal cancer, a pancreatic cancer or a gastric cancer. Briefly: Clinical study of the association with FOLFOX. The format is in vivo. The following applies: patients previously treated by FOLFOX. Here is the method:
A clinical study for testing the association of N-hydroxy-4-{2-[3-(N,N-dimethylamino-methyl)benzofuran-2-ylcarbonylamino]ethoxy}benzamide with FOLFOX is carried out on a maximum of 60 patients. Patients included in the study suffer from a colorectal cancer, a pancreatic cancer or a gastric cancer, and they have been treated by a treatment based on FOLFOX (i.e., alone or in association with other treatments) prior to their inclusion. More precisely, the study consists of 14-day cycles, each of the cycles being performed as follows: N-hydroxy-4-{2-[3-(N,N-dimethylaminomethyl)benzofuran-2-ylcarbonylamino]ethoxy}benzamide (in the form of a hydrochloride salt) is administered for 4 consecutive days whilst oxaliplatin and folinic acid are administered simultaneously on the third day, at the end of infusion of which 5-fluorouracil is administered continuously until the fifth day. […] At the end of a treatment cycle, the toxicity of the regimen associating N-hydroxy-4-{2-[3-(N,N-dimethylaminomethyl)benzofuran-2-ylcarbonylamino]ethoxy}benzamide and FOLFOX is assessed. […] Every four cycles, the efficacy of the treatment is assessed by evaluating the tumour response (CT scan, MRI, etc.). The acceptability profile is also evaluated (especially haematologic and cardiac toxicity).

The test system of experiment [2] is histone deacetylase (HDAC). The note with it: described in WO2004/092115; cited from earlier work.
In a further experiment the test system is cultured tumour cells. The note with it: cultured tumour cells in vitro; Buggy et al. 2006; cited from earlier work.
In another experiment the test system is xenograft models. The note with it: in vivo, Buggy et al. 2006; cited from earlier work.

These results are taken from patent US20150038513A1, “ASSOCIATION BETWEEN N-HYDROXY-4-BENZAMIDE AND FOLFOX” (LES LABORATOIRES SERVIER, priority 2011, published 2015).

In the case of `CN(C)Cc1c(C(=O)NCCOc2ccc(C(=O)NO)cc2)oc2ccccc12` [N-hydroxy-4-{2-[3-(N,N-dimethylaminomethyl)benzofuran-2-ylcarbonylamino]ethoxy}benzamide], the “efficacy of the treatment (tumour response) of the association with FOLFOX” value in experiment [1] (hydrochloride salt p.o., 160-360 mg daily, 4 consecutive days, in association with FOLFOX, 14-day cycles) was “promising”. Besides, the “reversal of resistance to FOLFOX” value in experiment [1] is recorded as “reverse the resistance to FOLFOX”. Further, in experiment [2], the HDAC inhibition entry is “powerful histone deacetylase (HDAC) inhibitor”. Besides, in the experiment on cultured tumour cells, the apoptosis result is on record as “induces apoptosis” and the cell growth result was “inhibition of cell growth”. In addition, the tumour growth result with xenograft models is “inhibits tumour growth”.
